As usually defined, the T/C is the ratio of treated to control.

This is an account of results in PubChem BioAssay AID342 (DTP/NCI, 2004).

This assay deals with Swiss mice, Sarcoma 180 sc, mean tumor weight T/C. Kind of assay: NCI In Vivo Anticancer Drug Screen. Data for tumor model Sarcoma 180 (subcutaneous) in Swiss mice. As to conditions: endpoint: mean tumor weight, higher = larger tumour. In short, it runs like this:
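Tumor-bearing mice, transplantable tumor; readout survival or tumor size; result = T/C, treated vs vehicle control.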

The mark [1] stands for this setting: dose: 8.0 mg/kg/injection, schedule: Q01DX007 (ip), vehicle: carboxymethylcellulose (CMC).
[2] abbreviates: dose: 12.0 mg/kg/injection, schedule: Q01DX007 (ip), vehicle: carboxymethylcellulose (CMC).
[3] abbreviates: dose: 5.0 mg/kg/injection, schedule: Q01DX007 (ip), vehicle: carboxymethylcellulose (CMC).

Values joined by “and” are separate entries in the source; they are usually repeats but may differ in a detail not shown here. Identical values can stand only once.

On to `COc1ccc2c(=O)cc(-c3ccccc3)n(C)c2c1`, for which the T/C reads like this: (dose: 50.0 mg/kg/injection, schedule: Q01DX007 (ip), vehicle: saline) 68 % of control; (dose: 100.0 mg/kg/injection, schedule: Q01DX007 (ip), vehicle: saline) 110 % of control; (dose: 200.0 mg/kg/injection, schedule: Q01DX007 (ip), vehicle: saline) 109 % of control; (dose: 400.0 mg/kg/injection, schedule: Q01DX007 (ip), vehicle: saline) 76 % of control.
Turning to `O=C(O)Cc1ccc(C2CCCCC2)cc1`, the T/C is 120 % of control (dose: 37.5 mg/kg/injection, schedule: Q01DX007 (ip), vehicle: carboxymethylcellulose (CMC)); 115 % of control (dose: 75.0 mg/kg/injection, schedule: Q01DX007 (ip), vehicle: carboxymethylcellulose (CMC)); 80 % of control (dose: 150.0 mg/kg/injection, schedule: Q01DX007 (ip), vehicle: carboxymethylcellulose (CMC)); 70 % of control and 75 % of control (dose: 300.0 mg/kg/injection, schedule: Q01DX007 (ip), vehicle: carboxymethylcellulose (CMC)); 67 % of control (dose: 600.0 mg/kg/injection, schedule: Q01DX007 (ip), vehicle: carboxymethylcellulose (CMC)).
Consider `COC(=O)c1[nH]c(=O)[nH]c(=O)c1F`, for which the T/C by setting is: (dose: 4.5 mg/kg/injection, schedule: Q01DX007 (ip), vehicle: carboxymethylcellulose (CMC)) 78 % of control; (dose: 9.0 mg/kg/injection, schedule: Q01DX007 (ip), vehicle: carboxymethylcellulose (CMC)) 44 % of control and 55 % of control; (dose: 14.0 mg/kg/injection, schedule: Q01DX007 (ip), vehicle: carboxymethylcellulose (CMC)) 39 % of control and 51 % of control and 54 % of control; (dose: 21.0 mg/kg/injection, schedule: Q01DX007 (ip), vehicle: carboxymethylcellulose (CMC)) 26 % of control; (dose: 31.0 mg/kg/injection, schedule: Q01DX007 (ip), vehicle: carboxymethylcellulose (CMC)) 10 % of control and 14 % of control; (dose: 47.0 mg/kg/injection, schedule: Q01DX007 (ip), vehicle: carboxymethylcellulose (CMC)) 5 % of control and 7 % of control and 12 % of control.
For `O=P(N1CCCC1)(N1CC1)N1CC1`, the T/C runs as follows: (dose: 1.0 mg/kg/injection, schedule: Q#A X014 (ip), vehicle: saline) 50 % of control and 54 % of control; (dose: 1.3 mg/kg/injection, schedule: Q#A X014 (ip), vehicle: carboxymethylcellulose (CMC)) 76 % of control; (dose: 1.5 mg/kg/injection, schedule: Q#A X014 (ip), vehicle: saline) 10 % of control and 22 % of control; (dose: 2.0 mg/kg/injection, schedule: Q#A X014 (ip), vehicle: carboxymethylcellulose (CMC)) 66 % of control; (dose: 2.0 mg/kg/injection, schedule: Q#A X014 (ip), vehicle: saline) 15 % of control; (dose: 3.0 mg/kg/injection, schedule: Q#A X014 (ip), vehicle: carboxymethylcellulose (CMC)) 46 % of control. The T/C under setting [1] is 23 % of control and the T/C under setting [2] was 11 % of control.
Take `CC(=O)N[C@H]1CC[C@H]2[C@@H]3CCC4=CC(=O)CC[C@]4(C)[C@H]3CC[C@]12C`: the T/C reads like this: (dose: 5.0 mg/kg/injection, schedule: Q#A X014 (sc), vehicle: steriod suspending solution) 105 % of control; (dose: 50.0 mg/kg/injection, schedule: Q#A X014 (sc), vehicle: steriod suspending solution) 94 % of control; (dose: 100.0 mg/kg/injection, schedule: Q#A X014 (sc), vehicle: steriod suspending solution) 78 % of control.
Take `CC(=O)Nc1c(Cl)c(Cl)c2c(c1Cl)Cc1cc(Cl)c(Cl)cc1-2`: the T/C is, setting by setting: (dose: 3.1 mg/kg/injection, schedule: Q01DX007 (ip), vehicle: carboxymethylcellulose (CMC)) 35 % of control; (dose: 6.2 mg/kg/injection, schedule: Q01DX007 (ip), vehicle: carboxymethylcellulose (CMC)) 52 % of control; (dose: 12.5 mg/kg/injection, schedule: Q01DX007 (ip), vehicle: carboxymethylcellulose (CMC)) 48 % of control and 54 % of control; (dose: 21.0 mg/kg/injection, schedule: Q01DX007 (ip), vehicle: other) 63 % of control; (dose: 32.0 mg/kg/injection, schedule: Q01DX007 (ip), vehicle: other) 39 % of control; (dose: 33.0 mg/kg/injection, schedule: Q01DX007 (ip), vehicle: other) 49 % of control. Besides, the T/C was 77 % of control (dose: 48.0 mg/kg/injection, schedule: Q01DX007 (ip), vehicle: other); 40 % of control (dose: 49.0 mg/kg/injection, schedule: Q01DX007 (ip), vehicle: other); 31 % of control (dose: 73.0 mg/kg/injection, schedule: Q01DX007 (ip), vehicle: other); 21 % of control and 43 % of control (dose: 250.0 mg/kg/injection, schedule: Q01DX007 (ip), vehicle: other).
For the compound `COc1ccc2c(c[n+](C)c3c4cc5c(cc4ccc23)OCO5)c1OC`, the T/C (dose: 50.0 mg/kg/injection, schedule: Q01DX007 (ip), vehicle: carboxymethylcellulose (CMC)) is 60 % of control and the T/C (dose: 100.0 mg/kg/injection, schedule: Q01DX007 (ip), vehicle: carboxymethylcellulose (CMC)) is 83 % of control.
Turning to `CC[C@H](c1ccc(O)cc1)[C@@H](CC)c1ccc(O)cc1`, the T/C is 186 % of control (dose: 3.8 mg/kg/injection, schedule: Q01DX007 (sc), vehicle: steriod suspending solution); 67 % of control (dose: 7.5 mg/kg/injection, schedule: Q01DX007 (sc), vehicle: steriod suspending solution); 37 % of control and 43 % of control (dose: 15.0 mg/kg/injection, schedule: Q01DX007 (sc), vehicle: steriod suspending solution); 49 % of control and 67 % of control (dose: 62.0 mg/kg/injection, schedule: Q01DX007 (sc), vehicle: steriod suspending solution); 40 % of control and 43 % of control (dose: 125.0 mg/kg/injection, schedule: Q01DX007 (sc), vehicle: steriod suspending solution); 54 % of control (dose: 250.0 mg/kg/injection, schedule: Q01DX007 (sc), vehicle: steriod suspending solution).
In the case of `NC(=O)c1[nH]cnc1/N=N/N(Cc1ccccc1)Cc1ccccc1`, the T/C was 49 % of control (dose: 15.5 mg/kg/injection, schedule: Q#A X014 (ip), vehicle: carboxymethylcellulose (CMC)); 59 % of control (dose: 31.0 mg/kg/injection, schedule: Q#A X014 (ip), vehicle: carboxymethylcellulose (CMC)); 61 % of control (dose: 62.5 mg/kg/injection, schedule: Q#A X014 (ip), vehicle: carboxymethylcellulose (CMC)).
As for `CCC(=O)OCC1OC(n2cnc3c(=S)nc(N)[nH]c32)C(OC(=O)CC)C1OC(=O)CC` (stereo not drawn), the T/C (dose: 1.0 mg/kg/injection, schedule: Q01DX007 (ip), vehicle: carboxymethylcellulose (CMC)) was 61 % of control; the T/C (dose: 2.0 mg/kg/injection, schedule: Q01DX007 (ip), vehicle: carboxymethylcellulose (CMC)) was 65 % of control; the T/C under setting [3] is 57 % of control and 58 % of control; the T/C (dose: 11.0 mg/kg/injection, schedule: Q01DX007 (ip), vehicle: carboxymethylcellulose (CMC)) was 22 % of control.
In the case of `CC(=O)Nc1c(Cl)cc2c(c1Cl)Cc1cc([N+](=O)[O-])ccc1-2`, for the setting “dose: 222.0 mg/kg/injection, schedule: Q01DX007 (ip), vehicle: saline”, the T/C is 59 % of control.
Turning to `CCOC(=O)C(N)Cc1ccc(N(CCCl)CCCl)cc1` (stereo not drawn), the T/C reads like this: (dose: 1.4 mg/kg/injection, schedule: Q01DX007 (ip), vehicle: saline) 41 % of control; (dose: 2.7 mg/kg/injection, schedule: Q01DX007 (ip), vehicle: saline) 93 % of control; (dose: 4.1 mg/kg/injection, schedule: Q01DX007 (ip), vehicle: saline) 9 % of control; under setting [3], 90 % of control; (dose: 5.5 mg/kg/injection, schedule: Q01DX007 (ip), vehicle: saline) 32 % of control and 49 % of control; under setting [1], 83 % of control. Also, the T/C reads like this: (dose: 8.3 mg/kg/injection, schedule: Q01DX007 (ip), vehicle: saline) 15 % of control and 20 % of control; under setting [2], 59 % of control; (dose: 12.5 mg/kg/injection, schedule: Q01DX007 (ip), vehicle: saline) 7 % of control; (dose: 18.0 mg/kg/injection, schedule: Q01DX007 (ip), vehicle: carboxymethylcellulose (CMC)) 29 % of control and 42 % of control; (dose: 27.0 mg/kg/injection, schedule: Q01DX007 (ip), vehicle: carboxymethylcellulose (CMC)) 15 % of control.
